Assay results taken from article PMC5318439, “The Novel Toll-Like Receptor 2 Agonist SUP3 Enhances Antigen Presentation and T Cell Activation by Dendritic Cells” (Frontiers in Immunology, 2017).
Where a SMILES comes first, the peptide text is derived from it. The star is where a group is joined. X1 = CCCCCCCCCCCCCCNC(=O)OC[C@H](C*)OC(=O)NCCCCCCCCCCCCCC; Palmitoyl = CCCCCCCCCCCCCCCC(=O)*

Tests used:
splenic B cells = test: B cell activation markers in vitro; assay type: cell-based, mice; conditions: 200 nM, 2 × 10^6 cells/mL, 24 h
Excerpt: Splenic DCs were purified as described previously ([37]). CD8^+ cDCs expanded by B16-Flt3L inoculation were enriched, and then CD8^+ cDCs were positively sorted by MACS technology (Miltenyi Biotec). Splenic B cells were purified through negative selection by Streptavidin-MicroBeads (Miltenyi Biotec 130-048-102) combined with different antibodies cocktail to exclude non-B cells. The antibodies cocktail was composed of biotinylated antibodies against CD4 (T cells and DCs) (eBioscience, clone GK1.5), CD8 (T cells and DCs) (eBioscience, clone 53-6.7), CD43 (T cells, monocytes, granulocytes) (eBioscience, clone eBioR2/60), and Ter119 (erythrocytes) (eBioscience, clone TER119). B cells were further purified through MACS LS column (Miltenyi Biotec 130-042-401).
Figure 7 SUP3 promoted stronger B cell activation in vitro. Purified splenic B cells (2 × 10^6 cells/mL) were treated with SUP3 (200 nM), Pam3 (200 nM), or lipopolysaccharide (LPS) (1.5 µg/mL), respectively. (A) Surface CD25, CD40, and CD86 were stained 24 h post-stimulation. (B) Supernatants were harvested 3 or 5 days post-stimulation, and total IgM in the supernatant was determined by ELISA. Representative data was from two independent experiments with triplicated wells in each group (**p < 0.01).

CD11b^+ cDCs = test: Cytokine production by purified CD11b+ cDCs (ELISA); assay type: cell-based, mice; conditions: 200 nM, GM-CSF 20 ng/mL, 24 h, compared with CpG 20 nM
Protocol: Splenic DCs (5 × 10^5 cells/mL) were stimulated by Pam3 (200 nM), SUP3 (200 nM), or CpG ODN 1668 (20 nM; Adipogen IAX-200-001) in the GM-CSF (20 ng/mL) supplemented medium for indicated periods. Cell culture supernatants were harvested at indicated time points and stored at −40°C. RAW 264.7 cells and GMDCs were stimulated by lipopolysaccharide (LPS) (20 ng/mL; Adipogen IAX-100-013), Pam3, or SUP3 (both at 200 nM) for 24 h. For in vivo administration, Pam3 (2 nmol per mouse), SUP3 (2 nmol per mouse), or LPS (1 µg per mouse) were intravenously (i.v.) injected via tail veins. Serum was obtained through tail vein bleeding and centrifuged after coagulation and stored at −40°C. Cytokines (IL-6, eBioscience 88-7064; TNFα, eBioscience 88-7324; IL-12p40, BioLegend 431604), chemokine (MIP1α, R&D Systems DY450-05), and total IgM (eBioscience, 88-50470) were quantified by ELISA kits following the instructions of manufacturers.
Figure 5 SUP3 enhanced antigen presentation ability of CD11b^+ conventional dendritic cells (cDCs) and production of antibodies against thymus-dependent (TD) antigens. […] Three days after immunization, division of OT-II CD4^+ T cells from inguinal lymph nodes were analyzed by flow cytometry (B). Absolute numbers of proliferated OT-II CD4^+ T cells were calculated in (C). […] (D) The division of OT-II cells was measured by reduced level of CFSE-labeling. […]

## CCCCCCCCCCCCCCCC(=O)N[C@@H](CSC[C@@H](COC(=O)NCCCCCCCCCCCCCC)OC(=O)NCCCCCCCCCCCCCC)C(=O)NCC(=O)N[C@@H](CCCCN)C(=O)N[C@@H](CCCCN)C(=O)N[C@@H](CCCCN)C(=O)O [SUP3, (2S,5S,8S,14R,18R)-2,5,8-tris(4-aminobutyl)-4,7,10,13,21-pentaoxo-14-palmitamido-18-((tetradecylcarbamoyl)oxy)-20-oxa-16-thia-3,6,9,12,22-pentaazahexatriacontan-1-oic acid] (Palmitoyl-C(X1)GKKK-OH)
Splenic B cells
  CD25, CD40, and CD86 on B lymphocytes: marked upregulation
CD11b^+ cDCs
  IL-6, TNFα, and MIP1α production by CD11b+ cDCs: lower level

## Pam3CSK4 [reference compound]
Splenic B cells
  CD25, CD40, and CD86 on B lymphocytes: marked upregulation
CD11b^+ cDCs
  IL-6, TNFα, and MIP1α production by CD11b+ cDCs: lower level
